# Experimental data from paper PMC7181660, “A novel specific PERK activator reduces toxicity and extends survival in Huntington's disease models” (Scientific Reports, 2020).
# Experiments:
# PERK−/− MEF cells = assay: Rescue from tunicamycin-induced apoptosis in PERK−/− MEFs; assay type: cell-based; details: Tun
# Protocol: STHdh^Q111/111 cells (used before[13]) or PERK+/+ or PERK−/− MEFs (kindly provided by David Ron, Univ. Cambridge) were incubated with Tun (10 μg/ml) for 48 h, which results in ER stress-induced cell death. Cells under the same conditions were incubated for the same times, together with Tun, with increasing concentrations of the different PERK modulators (0–120 μM) and the percent of apoptotic cells was measured by FACS cell cycle progression using propidium iodide (PI), considering the fraction beneath G0/G1. The relative apoptosis rate was calculated to be able to compare between compounds and experiments, where for each concentration curve the percent of apoptotic cells was considered 100 at concentration 0 of the PERK modulator, with only Tun. The graphs show the average relative apoptosis rate of at least 3 independent experiments for each compound.
# Cells were washed with PBS and fixed with cold methanol. Before FACS analysis cells were washed with PBS, followed by addition of propidium iodide (PI) solution (10 μg/ml) and analysis by flow cytometry. Cells in sub-G0/G1 were counted as apoptotic/ dead.
# [1] = Body weight during therapeutic study (Alzet minipumps); assay type: in vivo, mice; details: 1 mg/kg subcutaneous minipump, 7 weeks after pump implantation
# Protocol: (§1) Alzet pumps model 1004 (Alzet, USA), with a rate of 0.11 µl/hour and 28 days effective compound delivery was used. MK-28 compound was dissolved in 1:1 DMSO/PEG400 and prepared to delivery subcutaneously 6 mg/kg MK-28 for toxicity studies (n = 8) or 1 mg/kg for therapeutic evaluation in R6/2 mice (n = 72). For toxicity studies mice receiving six times the therapeutic dose of MK-28 or vehicle were weighed every two days for two consecutive weeks. […]. Alzet pumps were implanted in 4 weeks old mice and MK-28 was administered at 1 mg/kg with continuous dosing for 28 days. […]
# panel of 391 kinases [2] = target: panel of 391 kinases (Homo sapiens, UniProt Q9Y2K2); assay: biochemical; assay type: biochemical; details: SIK3, MK-28 1 µM, ATP 1 µM
# panel of 391 kinases [3] = target: panel of 391 kinases (Homo sapiens, UniProt Q15759); assay: biochemical; assay type: biochemical; details: P38b/MAPK11, MK-28 1 µM, ATP 1 µM
# panel of 391 kinases [4] = target: panel of 391 kinases (Homo sapiens, UniProt Q15120); assay: biochemical; assay type: biochemical; details: kinase PDK3/PDHK3, compound at 1 µM, single dose in duplicates, 1 µM ATP
# panel of 391 kinases [5] = target: panel of 391 kinases (Homo sapiens, UniProt Q14680); assay: biochemical; assay type: biochemical; details: MELK, MK-28 1 µM, ATP 1 µM
# R6/2 HD mouse model [6] = assay: Ultrasonic vocalizations; assay type: in vivo, mice; details: R6/2 TG males
# Protocol: Ultrasonic vocalizations were recorded on males during the first 5 minutes of female exposure, 12 weeks after birth. Vocal emissions were monitored by an UltraSoundGate Condenser Microphone (CM 16; Avisoft Bioacoustics, Berlin, Germany) placed 16 cm above the floor of each male's cage. […]. […] Spectrograms were produced at 586 Hz of frequency resolution and 0.427 ms of time resolution. Figure plotted by MATLAB code.
# R6/2 HD mouse model [7] = assay: Survival of R6/2 mice; assay type: in vivo
# Protocol: All experimental procedures were approved by and conducted in strict compliance with the Institutional Animal Care and Use Committee of Tel Aviv University. Mice were kept in a 12/12-hour light/dark cycle with food and water ad libitum. […]. At three weeks mice were assessed for CAG repeat size using the following primer set: 5’-[…]-3′ and 5′-[…] G-3′. Following Jackson laboratories guidelines, wild type (WT) and TG littermates were kept combined in the same minimally-enriched cages (with cardboard rolls and gauze pads), and after week 8 water and mushed food were placed at the ground level for all the cages. Male mice treatment groups were coded and remained blind to the observers throughout the experiment. Power calculations determined that 16 mice per group was the minimum required to see at least a 20% increase (alpha 0.05, beta 0.2, power 80%) in motor performance and survival of R6/2 mice with MK-28 subcutaneous delivery compared to vehicle. Multiple endpoints were prospectively selected, consistent with the analyses we here report. Data collection was ended before signs of animal suffering or inability to thrive appear.
# as §1
# EIF2AK2 (PKR) = EIF2AK2 (PKR) (Homo sapiens, UniProt P19525); assay: In vitro HotSpot kinase assay on PKR; assay type: biochemical
# Protocol: (§2) In vitro kinase assays with purified components and full kinase panel analysis was done at Reaction Biology Corp. (Malvern, PA, USA) using the HotSpot Kinase Assay. Reactions were performed for 20 min at room temp. using ^33P-ATP (Specific activity 10 μCi/μl) with 1 μM total ATP, 20 μM substrate and kinases in the nanomolar range in 20 mM Hepes (pH 7.5), 10 mM MgCl2, 1 mM EGTA, 0.02% Brij35, 0.02 mg/ml BSA, 0.1 mM Na3VO4, 2 mM DTT, 1% DMSO and other required factors depending on the assayed kinase.
# R6/2 HD mouse model [8] = assay: Blood glucose levels; assay type: in vivo, mice; details: TG + MK-28
# Protocol: For blood glucose measurements, blood samples from all the evaluated groups (n = 34) were obtained from the tail and measured with the Accu-Check glucose monitor (Roche Diagnostics, USA). Two independent glucose measurements were performed at the same hour 3 and 12 weeks after birth corresponding to the asymptomatic and symptomatic stages respectively. Glucose levels are expressed in mg/dl.
# EIF2AK4 (GCN2) = EIF2AK4 (GCN2) (Homo sapiens, UniProt Q9P2K8); assay: In vitro HotSpot kinase assay on GCN2; assay type: biochemical; details: plateau considered reached at 10 µM; read-out: EC50 of GCN2 activation
# Protocol: as §2, with “kinase. […]” for “kinase.”
# was calculated from the data in Fig. 3. Note that for the calculation for GCN2, we considered […]
# Suppl. Fig. S3. Modulation of PERK by A4. A4 was tested for its effect on isolated PERK in vitro, showing a weak activating effect in the nanomolar range. (performed at Reaction Biology Corp. using the HotSpot Kinase Assay).
# (1 picture or pasted object on this page, not shown here)
# [9] = read-out: % Enzyme Activity (relative to DMSO controls)
# [10] = R6/2 TG, 1 mg/kg subcutaneous 28 days
structure (smiles),measurement,setting,value
CN(/N=C\c1ccc(O)c(O)c1)c1nc(-c2ccccc2)cc(-c2ccccc2)n1 [MK-28],protection from ER stress-induced cell death,PERK−/− MEF cells,failed to protect
same,"weight, MK-28 vs vehicle",[1],no significant differences
same,% Enzyme Activity (relative to DMSO controls),panel of 391 kinases [2],101.97%
same,remaining activity at 1 µM,panel of 391 kinases [2]; [9],105%
same,% Enzyme Activity (relative to DMSO controls),panel of 391 kinases [3],107.60%
same,remaining activity at 1 µM,panel of 391 kinases [3]; [9],109%
same,% Enzyme Activity (relative to DMSO controls),panel of 391 kinases [4],102.25%
same,remaining activity at 1 µM,panel of 391 kinases [4]; [9],105%
same,% Enzyme Activity (relative to DMSO controls),panel of 391 kinases [5],84.50%
same,remaining activity at 1 µM,panel of 391 kinases [5]; [9],85.5%
same,vocalizations,R6/2 HD mouse model [6]; 12 weeks after birth,16 syllables in 5 min
same,increase of vocalizations vs untreated TG,R6/2 HD mouse model [6]; p = 0.059,three-fold increase
same,extension of median survival and death initiation,R6/2 HD mouse model [7]; 28-day treatment in young R6/2 mice,10%
same,survival curve ratio (Gehan-Breslow-Wilcoxon test),R6/2 HD mouse model [7]; 95% CI 0.7726 to 4.611,1.887
same,delay of death initiation,R6/2 HD mouse model [7]; [10],10 days
same,increase of median survival compared to controls,R6/2 HD mouse model [7]; [10],8 days
same,median survival,R6/2 HD mouse model [7]; [10],97 days
same,effect on EIF2AK2 (PKR) activity,EIF2AK2 (PKR),little or no effect
same,glucose increase ratio between disease stages (symptomatic vs asymptomatic),R6/2 HD mouse model [8],109.60 ± 5.04%
same,EC50,EIF2AK4 (GCN2),3.5 µM
